Here are results for one compound from PMC3242598, “Phase I study of BIBF 1120 with docetaxel and prednisone in metastatic chemo-naive hormone-refractory prostate cancer patients” (British Journal of Cancer, 2011).

SMILES strings stand for the structures. “Also recorded” adds a separate entry of the source. Like-named read-outs stand apart in the source and are kept apart here.

Data set [1] can be described thus: Plasma pharmacokinetics of BIBF 1120 (HPLC-MS/MS). It counts as in vivo, human. The settings on record: for Cmax / AUC(0-t) / half-life / Tmax: human, plasma, po, 250 mg; for Cmax: read-out: Cmax, gMean (gCV%); for AUC(0-t): read-out: AUC0−24, gMean (gCV%); for half-life: read-out: t1/2, gMean (gCV%) (converted); for Tmax: read-out: tmax, median and range. Here is the method:
Plasma concentrations of BIBF 1120 and docetaxel were analysed by a validated method using high-performance liquid chromatography coupled with tandem mass spectrometry (HPLC-MS/MS) in the Department of Drug Metabolism and Pharmacokinetics (Boehringer Ingelheim Pharma GmbH & Co KG, Biberach, Germany). The assay comprises sample clean-up by automated solid-phase extraction in a 96-well plate format. Chromatography was achieved on an analytical C18 reversed phase HPLC column with gradient elution. The substance was detected and quantified by HPLC-MS/MS using electrospray ionisation in the positive ion mode. Docetaxel was analysed by HPLC-MS/MS using paclitaxel as an internal standard. The assay comprises sample clean-up by liquid–liquid extraction and chromatography on an analytical C18 reversed phase HPLC column with isocratic elution. […] For docetaxel, the lower limit was 2.5 ng ml^−1 plasma, using a plasma volume of 100 μl. The calculated parameters were plasmatic peak concentrations following the first dose (Cmax), half-life time (t1/2), area under the plasma concentration–time curve (AUCt), apparent clearance after oral administration, and apparent volume of distribution during the terminal phase.

On the set-up of data set [2]: method as in Mross et al, 2010. The settings on record: monotherapy phase I; ref Mross et al, 2010; cited from earlier work.
Data set [3] has as its system human prostate cancer xenografts. Further details: method as in Hilberg et al, 2008. To be noted: human prostate cancer xenografts in athymic mice; ref Hilberg et al, 2008; cited from earlier work.
The mark [4] stands for this setting: oral 250 mg BID, day 2 of treatment cycle 2, with docetaxel.
[5] abbreviates: male, oral 250 mg BID, day 2 of treatment cycle 1.
Setting [6] is: male, oral 250 mg BID, treatment cycle 2.

As for `COC(=O)c1ccc2c(c1)NC(=O)/C2=C(\Nc1ccc(N(C)C(=O)CN2CCN(C)CC2)cc1)c1ccccc1` [BIBF 1120], the “Exposure with increasing doses” value in data set [1] (100–250 mg BID) is “dose-dependent increase in exposure”. Also, the “Time to reach steady state” value in data set [1] (BIBF 1120 BID dosing) is 7 days. Also, the “PK interaction between BIBF 1120 and docetaxel/prednisone” value in data set [1] (combination therapy) is “no interactions; also recorded: no hint for PK interaction; also recorded: no indication of PK interaction”. Further, the maximum concentration (Cmax) (usually the highest concentration seen after dosing) was 45.9 ng/mL in data set [1] (setting [4]) and 65 ng/mL in data set [1] (male, oral 250 mg BID, day 2 of treatment cycle 1, with docetaxel). In addition, the AUC(0-t) was 454 ng·h/mL in data set [1] (setting [5]) and 410 ng·h/mL in data set [1] (setting [6]). The half-life was 7.03 h in data set [1] (setting [5]) and 15.4 h in data set [1] (male, oral 250 mg BID, day 2 of treatment cycle 2). Moreover, the Tmax (commonly the time from dosing to the highest level) in data set [1] (male, oral 250 mg BID, treatment cycle 1) was 3 h; in data set [1] (setting [6]) it was 2.08 h. In addition, in data set [1] (setting [4]), the “Cmax, gMean (gCV%)” value is on record as 45.8 (98.5) ng ml^−1. Besides, the t1/2 in data set [2] is about 15 h. Moreover, in data set [3], the “Antitumour activity in vivo” value is listed as “potent antitumour activity”.
